Legend:
Test in all cases: Test C pre-/postemergence greenhouse test
Format in all cases: in vivo
Details in all cases: scale 0 to 100
[1] = test system: morningglory (Ipomoea coccinea)
Outline: (§1)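 Test chemicals were formulated in a non-phytotoxic solvent mixture with surfactant and applied preemergence to seeds in silt loam soil or postemergence to plants of 2 to 18 cm in a peat/vermiculite medium. After 13 to 21 d in a greenhouse, response was visually scored from 0 (no effect) to 100 (complete control).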

[2] = test system: galium (catchweed bedstraw, Galium aparine)
Outline: as §1

[3] = test system: johnsongrass (Sorghum halepense)
Outline: as §1

[4] = test system: ryegrass, Italian (Lolium multiflorum)
Outline: as §1

[5] = test system: crabgrass, large (Digitaria sanguinalis)
Outline: as §1

soybean (Glycine max) = test system: soybean (Glycine max)
Outline: as §1

[6] = test system: waterhemp (common waterhemp, Amaranthus rudis)
Outline: as §1

[7] = test system: ragweed (common ragweed, Ambrosia elatior)
Outline: as §1

kochia (Kochia scoparia) = test system: kochia (Kochia scoparia)
Outline: as §1

corn (Zea mays) = test system: corn (Zea mays)
Outline: as §1

[8] = test system: oilseed rape (Brassica napus)
Outline: as §1

[9] = test system: velvetleaf (Abutilon theophrasti)
Outline: as §1

[10] = test system: surinam grass (Brachiaria decumbens)
Outline: as §1

## Cc1ccc2ccc(Cl)cc2c1-c1c(O)c(Cl)nn(C)c1=O [Cpd. No. 22]
[1]; Postemergence, 16 g ai/ha
  Plant response rating, Morningglory: 85
[1]; Postemergence, 31 g ai/ha
  Plant response rating, Morningglory: 100
[1]; Postemergence, 62 g ai/ha
  Plant response rating, Morningglory: 100
[1]; Postemergence, 125 g ai/ha
  Plant response rating, Morningglory: 100
[1]; Preemergence, 31 g ai/ha
  Plant response rating, Morningglory: 35
[1]; Preemergence, 61 g ai/ha
  Plant response rating, Morningglory: 25
[1]; Preemergence, 125 g ai/ha
  Plant response rating, Morningglory: 85
[2]; Postemergence, 16 g ai/ha
  Plant response rating, Galium: 85
[2]; Postemergence, 31 g ai/ha
  Plant response rating, Galium: 85
[2]; Postemergence, 62 g ai/ha
  Plant response rating, Galium: 95
[2]; Postemergence, 125 g ai/ha
  Plant response rating, Galium: 98
[2]; Preemergence, 31 g ai/ha
  Plant response rating, Galium: 50
[2]; Preemergence, 61 g ai/ha
  Plant response rating, Galium: 20
[2]; Preemergence, 62 g ai/ha
  Plant response rating, Galium: 70
[2]; Preemergence, 125 g ai/ha
  Plant response rating, Galium: 95
[3]; Postemergence, 16 g ai/ha
  Plant response rating, Johnsongrass: 20
[3]; Postemergence, 31 g ai/ha
  Plant response rating, Johnsongrass: 40
[3]; Postemergence, 62 g ai/ha
  Plant response rating, Johnsongrass: 50
[3]; Postemergence, 125 g ai/ha
  Plant response rating, Johnsongrass: 60
[3]; Preemergence, 31 g ai/ha
  Plant response rating, Johnsongrass: 30
[3]; Preemergence, 61 g ai/ha
  Plant response rating, Johnsongrass: 5
[3]; Preemergence, 62 g ai/ha
  Plant response rating, Johnsongrass: 50
[3]; Preemergence, 125 g ai/ha
  Plant response rating, Johnsongrass: 70
[4]; Postemergence, 16 g ai/ha
  Plant response rating, Ryegrass, Italian: 70
[4]; Postemergence, 31 g ai/ha
  Plant response rating, Ryegrass, Italian: 85
[4]; Postemergence, 62 g ai/ha
  Plant response rating, Ryegrass, Italian: 95
[4]; Postemergence, 125 g ai/ha
  Plant response rating, Ryegrass, Italian: 100
[4]; Preemergence, 31 g ai/ha
  Plant response rating, Ryegrass, Italian: 25
[4]; Preemergence, 61 g ai/ha
  Plant response rating, Ryegrass, Italian: 5
[4]; Preemergence, 62 g ai/ha
  Plant response rating, Ryegrass, Italian: 98
[4]; Preemergence, 125 g ai/ha
  Plant response rating, Ryegrass, Italian: 90
[5]; Postemergence, 16 g ai/ha
  Plant response rating, Crabgrass, Large: 10
[5]; Postemergence, 31 g ai/ha
  Plant response rating, Crabgrass, Large: 25
[5]; Postemergence, 62 g ai/ha
  Plant response rating, Crabgrass, Large: 15
[5]; Postemergence, 125 g ai/ha
  Plant response rating, Crabgrass, Large: 60
[5]; Preemergence, 31 g ai/ha
  Plant response rating, Crabgrass, Large: 25
[5]; Preemergence, 61 g ai/ha
  Plant response rating, Crabgrass, Large: 5
[5]; Preemergence, 62 g ai/ha
  Plant response rating, Crabgrass, Large: 75
[5]; Preemergence, 125 g ai/ha
  Plant response rating, Crabgrass, Large: 85
Soybean (Glycine max); Postemergence, 16 g ai/ha
  Plant response rating, Soybean: 5
Soybean (Glycine max); Postemergence, 31 g ai/ha
  Plant response rating, Soybean: 10
Soybean (Glycine max); Postemergence, 62 g ai/ha
  Plant response rating, Soybean: 20
Soybean (Glycine max); Postemergence, 125 g ai/ha
  Plant response rating, Soybean: 25
Soybean (Glycine max); Preemergence, 31 g ai/ha
  Plant response rating, Soybean: 5
Soybean (Glycine max); Preemergence, 61 g ai/ha
  Plant response rating, Soybean: 0
Soybean (Glycine max); Preemergence, 62 g ai/ha
  Plant response rating, Soybean: 0
Soybean (Glycine max); Preemergence, 125 g ai/ha
  Plant response rating, Soybean: 30
[6]; Postemergence, 16 g ai/ha
  Plant response rating, Waterhemp: 75
[6]; Postemergence, 31 g ai/ha
  Plant response rating, Waterhemp: 85
[6]; Postemergence, 62 g ai/ha
  Plant response rating, Waterhemp: 85
[6]; Postemergence, 125 g ai/ha
  Plant response rating, Waterhemp: 90
[6]; Preemergence, 31 g ai/ha
  Plant response rating, Waterhemp: 85
[6]; Preemergence, 61 g ai/ha
  Plant response rating, Waterhemp: 70
[6]; Preemergence, 62 g ai/ha
  Plant response rating, Waterhemp: 95
[6]; Preemergence, 125 g ai/ha
  Plant response rating, Waterhemp: 95
[7]; Postemergence, 16 g ai/ha
  Plant response rating, Ragweed: 90
[7]; Postemergence, 31 g ai/ha
  Plant response rating, Ragweed: 95
[7]; Postemergence, 62 g ai/ha
  Plant response rating, Ragweed: 100
[7]; Postemergence, 125 g ai/ha
  Plant response rating, Ragweed: 100
[7]; Preemergence, 31 g ai/ha
  Plant response rating, Ragweed: 60
[7]; Preemergence, 61 g ai/ha
  Plant response rating, Ragweed: 60
[7]; Preemergence, 62 g ai/ha
  Plant response rating, Ragweed: 90
[7]; Preemergence, 125 g ai/ha
  Plant response rating, Ragweed: 100
Kochia (Kochia scoparia); Postemergence, 16 g ai/ha
  Plant response rating, Kochia: 25
Kochia (Kochia scoparia); Postemergence, 31 g ai/ha
  Plant response rating, Kochia: 35
Kochia (Kochia scoparia); Postemergence, 62 g ai/ha
  Plant response rating, Kochia: 65
Kochia (Kochia scoparia); Postemergence, 125 g ai/ha
  Plant response rating, Kochia: 70
Kochia (Kochia scoparia); Preemergence, 31 g ai/ha
  Plant response rating, Kochia: 5
Kochia (Kochia scoparia); Preemergence, 61 g ai/ha
  Plant response rating, Kochia: 0
Kochia (Kochia scoparia); Preemergence, 62 g ai/ha
  Plant response rating, Kochia: 80
Kochia (Kochia scoparia); Preemergence, 125 g ai/ha
  Plant response rating, Kochia: 95
Corn (Zea mays); Postemergence, 16 g ai/ha
  Plant response rating, Corn: 0
Corn (Zea mays); Postemergence, 31 g ai/ha
  Plant response rating, Corn: 20
Corn (Zea mays); Postemergence, 62 g ai/ha
  Plant response rating, Corn: 35
Corn (Zea mays); Postemergence, 125 g ai/ha
  Plant response rating, Corn: 25
Corn (Zea mays); Preemergence, 31 g ai/ha
  Plant response rating, Corn: 10
Corn (Zea mays); Preemergence, 61 g ai/ha
  Plant response rating, Corn: 5
Corn (Zea mays); Preemergence, 62 g ai/ha
  Plant response rating, Corn: 5
Corn (Zea mays); Preemergence, 125 g ai/ha
  Plant response rating, Corn: 30
[8]; Postemergence, 16 g ai/ha
  Plant response rating, Oilseed Rape: 85
[8]; Postemergence, 31 g ai/ha
  Plant response rating, Oilseed Rape: 90
[8]; Postemergence, 62 g ai/ha
  Plant response rating, Oilseed Rape: 95
[8]; Postemergence, 125 g ai/ha
  Plant response rating, Oilseed Rape: 100
[8]; Preemergence, 31 g ai/ha
  Plant response rating, Oilseed Rape: 0
[8]; Preemergence, 61 g ai/ha
  Plant response rating, Oilseed Rape: 0
[8]; Preemergence, 62 g ai/ha
  Plant response rating, Oilseed Rape: 100
[8]; Preemergence, 125 g ai/ha
  Plant response rating, Oilseed Rape: 100
[9]; Postemergence, 16 g ai/ha
  Plant response rating, Velvetleaf: 55
[9]; Postemergence, 31 g ai/ha
  Plant response rating, Velvetleaf: 60
[9]; Postemergence, 62 g ai/ha
  Plant response rating, Velvetleaf: 80
[9]; Postemergence, 125 g ai/ha
  Plant response rating, Velvetleaf: 85
[9]; Preemergence, 31 g ai/ha
  Plant response rating, Velvetleaf: 60
[9]; Preemergence, 61 g ai/ha
  Plant response rating, Velvetleaf: 10
[9]; Preemergence, 62 g ai/ha
  Plant response rating, Velvetleaf: 90
[9]; Preemergence, 125 g ai/ha
  Plant response rating, Velvetleaf: 80
[10]; Postemergence, 16 g ai/ha
  Plant response rating, Surinam Grass: 80
[10]; Postemergence, 31 g ai/ha
  Plant response rating, Surinam Grass: 85
[10]; Postemergence, 62 g ai/ha
  Plant response rating, Surinam Grass: 95
[10]; Postemergence, 125 g ai/ha
  Plant response rating, Surinam Grass: 95
[10]; Preemergence, 31 g ai/ha
  Plant response rating, Surinam Grass: 90
[10]; Preemergence, 61 g ai/ha
  Plant response rating, Surinam Grass: 75
[10]; Preemergence, 62 g ai/ha
  Plant response rating, Surinam Grass: 95
[10]; Preemergence, 125 g ai/ha
  Plant response rating, Surinam Grass: 100

— patent publication US12435044B2, “Pyridazinone herbicides and pyridazinone intermediates used to prepare a herbicide” (FMC Corporation, priority 2018, dated 2025)
